These results are taken from BindingDB's records for doi:10.1021/cb400526n (Academy of Sciences of The Czech Republic, 2013).

The structures appear in SMILES notation.

The target of the test is Aldo-keto reductase family 1 member B1 (Homo sapiens, UniProt P15121). Nature of the test: IC50 Activity Assays. To be noted: pH 7; 25 °C. On the procedure:
The final reaction volume was 500uL per reaction. All compounds were dissolved in dimethyl sulphoxide, and the corresponding solution was added to the cell and incubated for 5 min at 25 degrees Celsius prior to the addition of the substrate. The reaction was initiated by the addition of 1mM glyceraldehyde, and the decrease in optical density at 340nm was monitored for 3 min at 25 degrees Celsius in a UV-vis spectrophotometer.
As to `O=C(O)COc1cc(Cl)ccc1C(=O)NCc1ccc(Br)cc1F` [IDD388], the midpoint of inhibition, the IC50, lay at 400 nM.

Turning to `O=C(O)COc1cc(Cl)ccc1C(=O)NCc1ccc(Br)cc1` [MK181], the 50% inhibitory concentration (IC50) is 710 nM.

The compound `O=C(O)COc1cc(Cl)ccc1C(=O)NCc1ccc(I)cc1` [MK257] gave an IC50 of 1900 nM.

For the compound `O=C(O)COc1cc(Cl)ccc1C(=O)NCc1ccc(I)cc1F` [MK315], half-maximal inhibition (IC50) required 190 nM.

For `O=C(O)COc1cc(Cl)ccc1C(=O)NCc1c(F)c(F)c(Br)c(F)c1F` [MK319], the midpoint of inhibition, the IC50, lay at 300 nM.

The compound `O=C(O)COc1cc(Cl)ccc1C(=O)NCc1c(F)cc(Br)cc1F` [MK408] returned an IC50 of 1190 nM.

With `O=C(O)COc1cc(Cl)ccc1C(=O)NCc1c(F)cc(I)cc1F` [MK409], the IC50 was 1360 nM.

In general, IC50 refers to the midpoint of a concentration-inhibition curve. High values mean a need for much substance, low ones inhibition by little substance.
